Test results as given in patent US9266832B2, “Compounds for the treatment of neurodegenerative diseases” (Katholieke Universiteit Levun, priority 2010, dated 2016).

What follows are compounds tested on M17-TAU P301L cells (assay: Tau-induced toxicity experiment: LDH leakage of retinoic acid incubated M17-TAU P301L cells). Conditions: Homo sapiens, Neuroblastoma cell, 168 h; reduction of LDH activity of retinoic acid incubated M17-TAU P301L neuroblastoma cells, 7 days.
Format: cell-based
Text: A TAU expression plasmid was constructed by sub-cloning the cDNA of human TAU-P301L (encoding for TAU with proline 301 substituted by a leucine residue) into mammalian expression vector pcDNA3.1 resulting in plasmid pcDNA3.1-TAU P301L. Plasmids pcDNA3.1 and pcDNA3.1-TAU P301L were transfected to human neuroblastoma cells ([…]; ATCC No. CRL-2267) and independent clonal lines with the plasmids stably integrated into the genome were selected. […] Expression of the TAU P301L genes in the cell lines was confirmed by Western analysis.
In degenerated or dead cells lactate dehydrogenase (LDH) is leaked out of the cells into the extracellular environment due to a loss of plasma-membrane integrity. This principle was used to determine cytotoxicity by quantifying the level of leaked LDH into the growth medium.
The detailed method for determining TAU cytotoxicity was as follows: From appropriate precultures of M17-3.1 and M17-TAU(P301L) cells were seeded at 2500 cells/cm2 in Optimem Reduced Serum without phenol red (Gibco, Cat. 31985-047) supplemented with 1% fetal calf serum, 1 mM sodium pyruvate, 1× non-essential amino acids, 500 μg/ml G418 0.5× antibiotic/antimycotic. After 3 h of incubation at 37° C./5% CO2 1 volume of Optimem Reduced Serum (same as described above; except without fetal calf serum) supplemented with 2.5 μM retinoic acid (RA) was added. The cells were further incubated for 7 days. Subsequently, LDH activity was determined using Promega Cytotox 96 Non-Radioactive cytotoxicity assay, (Cat. G1780) according the supplier's instructions.
The M17-TAU P301L cell line made it possible to assess the ability of novel compounds to counteract TAU cytotoxicity. […] These measurements were used to calculate EC50 values of table 2.

In order of rising EC50:
1. O=C(NCCc1c[nH]c2ccc(Cl)cc12)c1ccc(Cc2cccc(Cl)c2)cc1 [Cpd046, N-(2-(5-chloro-1H-indol-3-yl)ethyl)-4-(3-chlorobenzyl)benzamide]  7 nM
2. O=C(NCCc1c[nH]c2ccc(Cl)cc12)c1ccc(Cc2cccc(F)c2)cc1 [Cpd048, N-(2-(5-chloro-1H-indol-3-yl)ethyl)-4-(3-fluorobenzyl)benzamide]  13 nM
3. N#Cc1cccc(Cc2ccc(C(=O)NCCc3c[nH]c4ccc(Cl)cc34)cc2)c1 [Cpd032, N-(2-(5-chloro-1H-indol-3-yl)ethyl)-4-(3-cyanobenzyl)benzamide]  14 nM
4. N#Cc1ccc(Cc2ccc(C(=O)NCCc3c[nH]c4ccc(Cl)cc34)cc2)cc1 [Cpd031, N-(2-(5-chloro-1H-indol-3-yl)ethyl)-4-(4-cyanobenzyl)benzamide]  16 nM
5. O=C(NCCc1c[nH]c2ccc(Cl)cc12)c1ccc(Cc2ccc(C(F)(F)F)cc2)cc1 [Cpd039, N-(2-(5-chloro-1H-indol-3-yl)ethyl)-4-(4-(trifluoromethyl)benzyl)benzamide]  22 nM
6. O=C(NCCc1c[nH]c2ccc(Cl)cc12)c1ccc(Cc2ccc(Cl)cc2)cc1 [Cpd045, N-(2-(5-chloro-1H-indol-3-yl)ethyl)-4-(4-chlorobenzyl)benzamide]  22 nM
7. Cc1ccc(Cc2ccc(C(=O)NCCc3c[nH]c4ccc(Cl)cc34)cc2)cc1 [Cpd033, N-(2-(5-chloro-1H-indol-3-yl)ethyl)-4-(4-methylbenzyl)benzamide]  31 nM
8. N#Cc1cccc(Cc2cccc(C(=O)NCCc3c[nH]c4ccc(Cl)cc34)c2)c1 [Cpd038, N-(2-(5-chloro-1H-indol-3-yl)ethyl)-3-(3-cyanobenzyl)benzamide]  31 nM
9. O=C(NCCc1c[nH]c2ccc(Cl)cc12)c1ccc(Cc2cccc(C(F)(F)F)c2)cc1 [Cpd042, N-(2-(5-chloro-1H-indol-3-yl)ethyl)-4-(3-(trifluoromethyl)benzyl)benzamide]  31 nM
10. O=C(NCCc1c[nH]c2ccc(Cl)cc12)c1ccc(Cc2ccccc2F)cc1 [Cpd049, N-(2-(5-chloro-1H-indol-3-yl)ethyl)-4-(2-fluorobenzyl)benzamide]  31 nM
11. N#Cc1ccc(Cc2cccc(C(=O)NCCc3c[nH]c4ccc(Cl)cc34)c2)cc1 [Cpd037, N-(2-(5-chloro-1H-indol-3-yl)ethyl)-3-(4-cyanobenzyl)benzamide]  32 nM
12. Cc1cccc(Cc2ccc(C(=O)NCCc3c[nH]c4ccc(Cl)cc34)cc2)c1 [Cpd036, N-(2-(5-chloro-1H-indol-3-yl)ethyl)-4-(3-methylbenzyl)benzamide]  40 nM
13. O=C(NCCc1c[nH]c2ccc(Cl)cc12)c1cccc(Cc2ccc(Cl)cc2)c1 [Cpd050, N-(2-(5-chloro-1H-indol-3-yl)ethyl)-3-(4-chlorobenzyl)benzamide]  50 nM
14. O=C(NCCc1c[nH]c2ccc(Cl)cc12)c1cccc(Cc2cccc(C(F)(F)F)c2)c1 [Cpd044, N-(2-(5-chloro-1H-indol-3-yl)ethyl)-3-(3-(trifluoromethyl)benzyl)benzamide]  55 nM
15. Cc1cccc(Cc2cccc(C(=O)NCCc3c[nH]c4ccc(Cl)cc34)c2)c1 [Cpd035, N-(2-(5-chloro-1H-indol-3-yl)ethyl)-3-(3-methylbenzyl)benzamide]  60 nM
16. Cc1ccc(Cc2cccc(C(=O)NCCc3c[nH]c4ccc(Cl)cc34)c2)cc1 [Cpd034, N-(2-(5-chloro-1H-indol-3-yl)ethyl)-3-(4-methylbenzyl)benzamide]  62 nM
17. O=C(NCCc1c[nH]c2ccc(Cl)cc12)c1ccc(Cc2ccccc2Cl)cc1 [Cpd047, N-(2-(5-chloro-1H-indol-3-yl)ethyl)-4-(2-chlorobenzyl)benzamide]  65 nM
18. O=C(NCCc1c[nH]c2ccc(Cl)cc12)c1cccc(Cc2ccccc2)c1 [Cpd010, 3-benzyl-N-(2-(5-chloro-1H-indol-3-yl)ethyl)benzamide]  78 nM
19. O=C(NCCc1c[nH]c2ccc(Cl)cc12)c1ccc(Cc2ccccc2C(F)(F)F)cc1 [Cpd041, N-(2-(5-chloro-1H-indol-3-yl)ethyl)-4-(2-(trifluoromethyl)benzyl)benzamide]  80 nM
20. O=C(NCCc1c[nH]c2ccc(Cl)cc12)c1ccc(CNCc2cccs2)cc1 [Cpd026, N-(2-(5-chloro-1H-indol-3-yl)ethyl)-4-((thiophen-2-ylmethylamino)methyl)benzamide]  83 nM
21. COc1ccccc1Cc1ccc(C(=O)NCCc2c[nH]c3ccc(Cl)cc23)cc1 [Cpd029, N-(2-(5-chloro-1H-indol-3-yl)ethyl)-4-(2-methoxybenzyl)benzamide]  84 nM
22. O=C(NCCc1c[nH]c2ccc(Cl)cc12)c1cccc(CNCc2ccccc2)c1 [Cpd023, 3-((benzylamino)methyl)-N-(2-(5-chloro-1H-indol-3-yl)ethyl)benzamide]  94 nM
23. COc1ccccc1Cc1cccc(C(=O)NCCc2c[nH]c3ccc(Cl)cc23)c1 [Cpd030, N-(2-(5-chloro-1H-indol-3-yl)ethyl)-3-(2-methoxybenzyl)benzamide]  96 nM
24. O=C(NCCc1c[nH]c2ccc(Cl)cc12)c1ccc(CNCc2ccccc2)cc1 [Cpd019, 4-((benzylamino)methyl)-N-(2-(5-chloro-1H-indol-3-yl)ethyl)benzamide]  103 nM
25. O=C(NCCc1c[nH]c2ccc(Cl)cc12)c1cccc(Cc2ccc(C(F)(F)F)cc2)c1 [Cpd040, N-(2-(5-chloro-1H-indol-3-yl)ethyl)-3-(4-(trifluoromethyl)benzyl)benzamide]  103 nM
26. O=C(NCCc1c[nH]c2ccc(Cl)cc12)c1ccc(Cc2ccccc2)cc1 [Cpd015, 4-benzyl-N-(2-(5-chloro-1H-indol-3-yl)ethyl)benzamide]  154 nM
27. O=C(NCCc1c[nH]c2ccc(Cl)cc12)c1cccc(CNCc2cccs2)c1 [Cpd022, N-(2-(5-chloro-1H-indol-3-yl)ethyl)-3-((thiophen-2-ylmethylamino)methyl)benzamide]  159 nM
28. O=C(NCCc1c[nH]c2ccc(Cl)cc12)c1ccc(CNCC2CCCCC2)cc1 [Cpd018, N-(2-(5-chloro-1H-indol-3-yl)ethyl)-4-((cyclohexylmethylamino)methyl)benzamide]  168 nM
29. O=C(NCCc1c[nH]c2ccc(Cl)cc12)c1ccc(Cn2cccn2)cc1 [Cpd011, 4-((1H-pyrazol-1-yl)methyl)-N-(2-(5-chloro-1H-indol-3-yl)ethyl)benzamide]  173 nM
30. O=C(NCCc1c[nH]c2ccc(Cl)cc12)c1ccccc1Cc1ccccc1 [Cpd009, 2-benzyl-N-(2-(5-chloro-1H-indol-3-yl)ethyl)benzamide]  240 nM
31. O=C(NCCc1c[nH]c2ccc(Cl)cc12)c1cccc(Cn2cccn2)c1 [Cpd006, 3-((1H-pyrazol-1-yl)methyl)-N-(2-(5-chloro-1H-indol-3-yl)ethyl)benzamide]  256 nM
32. Cc1ccccc1Cc1ccc(C(=O)NCCc2c[nH]c3ccc(Cl)cc23)cc1 [Cpd028, N-(2-(5-chloro-1H-indol-3-yl)ethyl)-4-(2-methylbenzyl)benzamide]  370 nM
33. O=C(NCCc1c[nH]c2ccc(Cl)cc12)c1ccc(Cn2ccnc2)cc1 [Cpd012, 4-((1H-imidazol-1-yl)methyl)-N-(2-(5-chloro-1H-indol-3-yl)ethyl)benzamide]  486 nM
34. O=C(NCCc1c[nH]c2ccc(Cl)cc12)c1cccc(CNC2CCCCC2)c1 [Cpd024, N-(2-(5-chloro-1H-indol-3-yl)ethyl)-3-((cyclohexylamino)methyl)benzamide]  724 nM
